A word on the IC50: it is the midpoint of a concentration-inhibition curve.

Bounds are passed on as bounds.

For the assay, the system named is kynurenine production in IFN-γ-treated KATO-III cells. Briefly: Inhibitory activity on kynurenine production (Test Example 1). Type of assay: cell-based. To be noted: Homo sapiens, IFN-γ treatment, culture for 96 hours, read-out: IC50 value, inhibition of kynurenine production. In short, it runs like this: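 Read-out is absorbance at 480 nm of medium treated with trichloroacetic acid, then p-dimethylaminobenzaldehyde, to quantify kynurenine. DMSO-only wells with and without IFN-γ serve as references. Cells were KATO-III, 2,000 per well, 96 h at 37 °C/5% CO2 with compound (DMSO ≤0.1%) and IFN-γ at 31.25 ng/mL in the added suspension.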
Regarding `CCCNS(=O)(=O)Nc1nc2ccccc2nc1OC(c1cccnc1)C(F)(F)F` (stereo not shown) [Compound 194, N-propyl-N′-{3-[2,2,2-trifluoro-1-(pyridin-3-yl)ethoxy]-quinoxalin-2-yl}sulfuric diamide], the IC50 was under 1000 nM.

Turning to `O=S(=O)(Nc1nc2ccccc2nc1OC(c1cccnc1)C(F)(F)F)c1ccccc1OC(F)(F)F` (stereo not shown) [Compound 151, N-{3-[2,2,2-trifluoro-1-(pyridin-3-yl)ethoxy]quinoxalin-2-yl}-2-(trifluoromethoxy)benzenesulfonamide], the IC50 was under 1000 nM.

`Cc1cc(S(=O)(=O)Nc2nc3ccccc3nc2OC(c2cccnc2)C(F)(F)F)c(C)s1` (stereo not shown) [Compound 162, 2,5-dimethyl-N-{3-[2,2,2-trifluoro-1-(pyridin-3-yl)ethoxy]-quinoxalin-2-yl}thiophene-3-sulfonamide]: the IC50 is under 1000 nM.

Turning to `O=S(=O)(Nc1nc2ccccc2nc1OC(c1ccccc1)C(F)(F)F)c1ccccc1Cl` (stereo not shown) [Compound 44, 2-chloro-N-[3-(2,2,2-trifluoro-1-phenylethoxy)quinoxalin-2-yl]benzenesulfonamide], the 50% inhibitory concentration (IC50) was under 1000 nM.

Regarding `O=S(=O)(Nc1nc2ccccc2nc1OC(c1cccnc1)C(F)(F)C(F)(F)F)c1cccc(Cl)c1Cl` (stereo not shown) [Compound 46, 2,3-dichloro-N-{3-[3,3,3,2,2-pentafluoro-1-(pyridin-3-yl)-propoxy]quinoxalin-2-yl}benzenesulfonamide], the half-maximal inhibitory concentration (IC50) is under 1000 nM.

As to `O=S(=O)(Nc1nc2ccccc2nc1OC(C1CCSCC1)C(F)(F)F)c1ccccc1Cl` (stereo not shown) [Compound 267, 2-chloro-N-{3-[2,2,2-trifluoro-1-(tetrahydro-2H-thiopyran-4-yl)ethoxy]quinoxalin-2-yl}benzenesulfonamide], the IC50 is under 1000 nM.

`CCCS(=O)(=O)Nc1nc2ccccc2nc1O[C@@H](c1cnc(C)s1)C(F)(F)F` [Compound 343, (R)—N-{3-[2,2,2-trifluoro-1-(2-methylthiazol-5-yl)ethoxy]-quinoxalin-2-yl}propane-1-sulfonamide]: the IC50 lay within 1000 to 10000 nM.

In the case of `CC(C)C(Oc1nc2ccccc2nc1NS(=O)(=O)c1cccc(Cl)c1Cl)C(C)C` [Compound 226, 2,3-dichloro-N-[3-(2,4-dimethylpentan-3-yloxy)quinoxalin-2-yl]benzenesulfonamide], the IC50 is under 1000 nM.

On to `Cc1nn(C)c(Cl)c1S(=O)(=O)Nc1nc2ccccc2nc1OC(c1cncn1C)C(F)(F)F` (stereo not shown) [Compound 170, 5-chloro-1,3-dimethyl-N-{3-[2,2,2-trifluoro-1-(1-methyl-1H-imidazol-5-yl)ethoxy]quinoxalin-2-yl}-1H-pyrazole-4-sulfonamide], for which the IC50 was under 1000 nM.

Consider `O=S(=O)(Nc1nc2cc(Cl)c(Cl)cc2nc1OC(c1cccnc1)C(F)(F)F)c1ccccc1Cl` (stereo not shown) [Compound 264, 2-chloro-N-{6,7-dichloro-3-[2,2,2-trifluoro-1-(pyridin-3-yl)ethoxy]quinoxalin-2-yl}benzenesulfonamide], for which the 50% inhibitory concentration (IC50) was under 1000 nM.

With `O=S(=O)(Nc1nc2ccccc2nc1OCc1ccc2ccccc2c1)c1ccccc1C(F)(F)F` [Compound 21, 2-(trifluoromethyl)-N-{3-[(2-naphthyl)methoxy]quinoxalin-2-yl}benzenesulfonamide], the IC50 was under 1000 nM.

As for `COC(=O)C(Oc1nc2ccccc2nc1NS(=O)(=O)c1cccc(Cl)c1Cl)c1ccc(C(F)(F)F)cc1` (stereo not shown) [Compound 43, 2,3-dichloro-N-{3-{methoxycarbonyl[4-(trifluoromethyl)-phenyl]methoxy}quinoxalin-2-yl}benzenesulfonamide], the IC50 was under 1000 nM.

As for `Cc1nn(C)c(Cl)c1S(=O)(=O)Nc1nc2ccccc2nc1OC(c1ccc(CN(C)C)cc1)C(F)(F)F` (stereo not shown) [Compound 203, 5-chloro-N-{3-[1-(4-((dimethylamino)methyl)phenyl)-2,2,2-trifluoroethoxy]quinoxalin-2-yl}-1,3-dimethyl-1H-pyrazole-4-sulfonamide], the IC50 is under 1000 nM.

For `CCC(C)S(=O)(=O)Nc1nc2ccccc2nc1OC(c1cccnc1)C(F)(F)F` (stereo not shown) [Compound 187, N-{3-[2,2,2-trifluoro-1-(pyridin-3-yl)ethoxy]quinoxalin-2-yl}butane-2-sulfonamide], the IC50 was under 1000 nM.

With `COCCS(=O)(=O)Nc1nc2ccccc2nc1OC(c1cccnc1)C(F)(F)F` (stereo not shown) [Compound 300, 2-methoxy-N-{3-[2,2,2-trifluoro-1-(pyridin-3-yl)ethoxy]-quinoxalin-2-yl}ethanesulfonamide], the IC50 was under 1000 nM.

With `CCCS(=O)(=O)Nc1nc2ccccc2nc1OC(C1CCOCC1)C(F)(F)F` (stereo not shown) [Compound 215, N-{3-[2,2,2-trifluoro-1-(tetrahydro-2H-pyran-4-yl)ethoxy]-quinoxalin-2-yl}propane-1-sulfonamide], the IC50 was under 1000 nM.

Turning to `CC1(COc2nc3ccccc3nc2NS(=O)(=O)c2ccccc2Cl)COCOC1` [Compound 251, 2-chloro-N-{3-[(5-methyl-1,3-dioxan-5-yl)methoxy]-quinoxalin-2-yl}benzenesulfonamide], the IC50 was 1000 to 10000 nM.

As to `O=S(=O)(Nc1nc2ccccc2nc1OCc1ccc2ccccc2c1)c1cc(Cl)cc(Cl)c1` [Compound 15, 3,5-dichloro-N-{3-[(2-naphthyl)methoxy]quinoxalin-2-yl}-benzenesulfonamide], the half-inhibitory concentration (IC50) is under 1000 nM.

Regarding `CCCNS(=O)(=O)Nc1nc2ccccc2nc1OC(C1CCN(C)CC1)C(F)(F)F` (stereo not shown) [Compound 328, N-propyl-N′-{3-[2,2,2-trifluoro-1-(1-methylpiperidin-4-yl)ethoxy]quinoxalin-2-yl}sulfuric diamide], the 50% inhibitory concentration (IC50) was 1000 to 10000 nM.

On to `O=S(=O)(Nc1nc2ccccc2nc1OC(c1cccnc1)C(F)(F)F)c1ccc(Cl)s1` (stereo not shown) [Compound 146, 5-chloro-N-{3-[2,2,2-trifluoro-1-(pyridin-3-yl)ethoxy]-quinoxalin-2-yl}thiophene-2-sulfonamide], for which the IC50 was under 1000 nM.

With `CCCS(=O)(=O)Nc1nc2ccccc2nc1OC(C(F)(F)F)C1(F)CCOCC1` (stereo not shown) [Compound 350, N-{3-[2,2,2-trifluoro-1-(4-fluorotetrahydro-2H-pyran-4-yl)-ethoxy]quinoxalin-2-yl}propane-1-sulfonamide], the half-inhibitory concentration (IC50) was under 1000 nM.

For `CCCS(=O)(=O)Nc1nc2ccccc2nc1O[C@H](c1cnc(C)s1)C(F)(F)F` [Compound 342, (S)—N-{3-[2,2,2-trifluoro-1-(2-methylthiazol-5-yl)ethoxy]-quinoxalin-2-yl}propane-1-sulfonamide], the IC50 was under 1000 nM.

As to `Cc1noc(C)c1S(=O)(=O)Nc1nc2ccccc2nc1OC(c1ccccc1)C(F)(F)F` (stereo not shown) [Compound 185, 3,5-dimethyl-N-[3-(2,2,2-trifluoro-1-phenylethoxy)-quinoxalin-2-yl]isoxazole-4-sulfonamide], the IC50 is under 1000 nM.

Consider `C#CCNS(=O)(=O)Nc1nc2ccccc2nc1OC(c1cccnc1)C(F)(F)F` (stereo not shown) [Compound 274, N-{3-[2,2,2-trifluoro-1-(pyridin-3-yl)ethoxy]quinoxalin-2-yl}-N′-(2-propynyl)-sulfuric diamide], for which the concentration for half-maximal inhibition (IC50) was under 1000 nM.

Take `O=S(=O)(Nc1nc2ccccc2nc1OC(c1ccc(Cl)nc1)C(F)(F)F)c1ccccc1Cl` (stereo not shown) [Compound 85, 2-chloro-N-{3-[2,2,2-trifluoro-1-(6-chloropyridin-3-yl)-ethoxy]quinoxalin-2-yl}benzenesulfonamide]: the half-maximal inhibitory concentration (IC50) was under 1000 nM.

Take `Cc1nn(C)c(Cl)c1S(=O)(=O)Nc1nc2ccccc2nc1OC(c1ccccc1)C(F)(F)F` (stereo not shown) [Compound 184, 5-chloro-1,3-dimethyl-N-[3-(2,2,2-trifluoro-1-phenyl-ethoxy)quinoxalin-2-yl]-1H-pyrazole-4-sulfonamide]: the IC50 was under 1000 nM.

As for `Cc1noc(C)c1S(=O)(=O)Nc1nc2ccccc2nc1OC(C1CCSCC1)C(F)(F)F` (stereo not shown) [Compound 131, 3,5-dimethyl-N-{3-[2,2,2-trifluoro-1-(tetrahydro-2H-thiopyran-4-yl)ethoxy]quinoxalin-2-yl}isoxazole-4-sulfonamide], the IC50 was under 1000 nM.

As for `O=S(=O)(Nc1nc2ccccc2nc1OC(c1cccnc1)C(F)(F)F)c1ccccc1` (stereo not shown) [Compound 137, N-{3-[2,2,2-trifluoro-1-(pyridin-3-yl)ethoxy]quinoxalin-2-yl}benzenesulfonamide], the 50% inhibitory concentration (IC50) is under 1000 nM.

Regarding `O=S(=O)(Nc1nc2ccccc2nc1OC(c1cccnc1)C(F)(F)F)c1ccccc1Cl` (stereo not shown) [Compound 138, 2-Chloro-N-{3-[2,2,2-trifluoro-1-(pyridin-3-yl)ethoxy]-quinoxalin-2-yl}benzenesulfonamide], the IC50 is under 1000 nM.

`O=S(=O)(Nc1nc2ccccc2nc1OC(c1cncs1)C(F)(F)F)c1ccccc1Cl` (stereo not shown) [Compound 113, 2-chloro-N-{3-[2,2,2-trifluoro-1-(thiazol-5-yl)ethoxy]-quinoxalin-2-yl}benzenesulfonamide]: the concentration for half-maximal inhibition (IC50) is under 1000 nM.

With `CCCS(=O)(=O)Nc1nc2ccccc2nc1O[C@H](c1ccc(C)nc1)C(F)(F)F` [Compound 319, (R)—N-{3-[2,2,2-trifluoro-1-(6-methylpyridin-3-yl)ethoxy]-quinoxalin-2-yl}propane-1-sulfonamide], the 50% inhibitory concentration (IC50) was under 1000 nM.

With `Cc1ncc(C(Oc2nc3ccccc3nc2NS(=O)(=O)NC2CC2)C(F)(F)F)s1` (stereo not shown) [Compound 324, N-cyclopropyl-N′-{3-[2,2,2-trifluoro-1-(2-methylthiazol-5-yl)ethoxy]quinoxalin-2-yl}sulfuric diamide], the IC50 is under 1000 nM.

As for `CCCS(=O)(=O)Nc1nc2ccccc2nc1OC(c1cncc(C)c1)C(F)(F)F` (stereo not shown) [Compound 331, N-{3-[2,2,2-trifluoro-1-(5-methylpyridin-3-yl)ethoxy]-quinoxalin-2-yl}propane-1-sulfonamide], the IC50 was under 1000 nM.

In the case of `O=S(=O)(CC(F)(F)F)Nc1nc2ccccc2nc1OC(c1cccnc1)C(F)(F)F` (stereo not shown) [Compound 193, 2,2,2-trifluoro-N-{3-[2,2,2-trifluoro-1-(pyridin-3-yl)-ethoxy]quinoxalin-2-yl}ethanesulfonamide], the IC50 was under 1000 nM.

Values taken from patent US8673908B2, “Kynurenine production inhibitor” (Kyowa Hakko Kirin Co., Ltd., priority 2008, dated 2014).
